Results on one compound are retold here after paper PMC8481502, “Bovine NK-lysin peptides exert potent antimicrobial activity against multidrug-resistant Salmonella outbreak isolates” (Scientific Reports, 2021).

SMILES strings stand for the structures. Peptide text beside a SMILES is read from it.

Series [1] has as its system Swiss-Webster mice. Nature of the series: Mouse study of in vivo cytotoxic effects. The conditions noted are these: single intraperitoneal dose 100 µg (~ 4 mg/kg) in PBS, female Swiss-Webster mice, 5 per cage, 2-week observation. How it is done:
To determine whether NK-lysin peptides show in vivo cytotoxic effects, a mouse study was conducted. Briefly, thirty 5–6 weeks old female Swiss-Webster mice (Envigo, Indianapolis, IN) were housed in groups in six individual cages (5 mice per cage) in ABSL2 facilities with ad libitum access to food and water in a 12-h light:dark cycle. After 1 week of acclimation, mice were intraperitoneally injected with a single dose of 100 µg of NK-lysin peptides (NK1, NK2A, NK2B, NK2C, or Sc-NK2A, ~ 4 mg/kg of body weight) in PBS (1 mL). Mice injected with PBS (1 mL) served as a negative control for the study. Mice were daily observed for any signs of toxicity and were euthanized 2 weeks post peptide administration.

In series [2] the test system is MDR Salmonella outbreak isolate SX238 cytoplasmic membrane. Nature of the series: Propidium iodide (PI) uptake assay. The format is cell-based, Salmonella enterica serovar I 4,[5],12:i:-. To be noted: 5 µM peptide, 30 min, ~1 × 10^7 CFU/well in PBS, 3 µM PI. How it is done:
The kinetics of NK2A-induced damage to Salmonella cell membranes were evaluated using PI uptake assay as described previously. Briefly, an overnight culture of MDR Salmonella outbreak isolate SX238 was centrifuged, washed with PBS, and resuspended in PBS. Ninety microliters of bacterial suspension was transferred to a 96-well opaque plate (~ 1 × 10^7 CFU/well), mixed with 10 µL of PI (final concentration = 3 µM) and incubated at 37 °C for 5 min. PBS, polymyxin B (2, 4, 25, 50 and 100 µg/mL), NK2A or Sc-NK2A (both at 2 and 5 µM) were added and PI fluorescent intensities in each well was continuously measured (15 s intervals, flex mode) using a FlexStation 3 multi-mode (fluorescent) microplate reader (Molecular Devices LLC., San Jose, CA) for up to 6 h. The excitation and emission wavelengths for PI was set up at 530 nm and 620 nm, respectively.

Series [3] relates to MDR Salmonella enterica serovar Heidelberg (SB395). Nature of the series: Growth curve assay (automated reader, OD600) with isolate SB395. The format is cell-based. The conditions noted are these: LB broth, 10^5 CFU/well, OD600 over 24 h.
Series [4] has as its system Salmonella enterica serovar Typhimurium isolate UK-1 (SB377, non-MDR). The series can be described thus: Growth curve assay (automated reader, OD600) with isolate SB377. The format is cell-based. The conditions noted are these: LB broth, ~1 × 10^5 CFU/well, 37 °C, OD600 every hour for 24 h; tested 2-20 µM. How it is done:
(§1) Overnight cultures of a MDR Salmonella outbreak isolate (SX238) and one non-MDR Salmonella isolate (SB377) were diluted 1:1000 in LB broth to obtain approximately 1 × 10^6 colony forming units per milliliter (CFU/mL). One hundred microliters of each diluted culture were transferred into honeycomb® 100-well plates (~ 1 × 10^5 CFU/well) (Growth Curves USA, Piscataway, NJ). Bovine NK-lysin peptides (NK1, NK2A, NK2B, and NK2C) were added at the final peptide concentrations of 20, 10, 5, 3.5, 2 µM in PBS (total volume = 20 µL) with a final bacterial-peptide volume of 120 µL/well. The plates were covered with lids and placed in an automated growth curve reader (Bioscreen C; Growth Curves USA, Piscataway, NJ) which was programmed for continuous shaking at 37 °C, and optical density readings at 600 nm (OD600) were recorded every hour for 24 h. […] The optical density data were analyzed, and growth curve graphs for each isolate were generated using MS Excel. […] Twenty-four-hour growth curve assays for Salmonella isolate SX238 were repeated at different bacterial CFU (~ 1 × 10^5, 1 × 10^6, 1 × 10^7, and 1 × 10^8 CFU/mL) with NK2A (5 µM and 10 µM). Sc-NK2A was included as a control for the assay.

Series [5] deals with Salmonella SX238 outer- and inner-membranes. Nature of the series: Transmission electron microscopy of peptide-treated bacteria. In kind it is cell-based, Salmonella enterica serovar I 4,[5],12:i:-. The conditions noted are these: 20 µM peptide, 1 h at 37 °C, ~1 × 10^7 CFU/well in PBS. As for the experimental part:
Morphological changes of bacteria following incubation with NK2A and Sc-NK2A peptides were studied by TEM. An overnight culture of Salmonella (isolate SX238) was centrifuged and resuspended in PBS. One hundred microliters of bacterial suspension were placed in a Honeycomb plate (~ 1 × 10^7 CFU/well) and NK2A, Sc-NK2A (20 µM), and PBS were added and incubated at 37 °C with continuous shaking for 1 h. The bacterial suspensions were mixed with an equal volume of 3% glutaraldehyde in 0.1 M cacodylate buffer (pH 7.4) and processed for TEM as described before. Sections were examined with a FEI Tecnai G2 Biotwin (FEI Co., Hillboro, OR) TEM and images were taken with Advanced Microscopy Technologies (AMT Inc., Danvers, […]) imaging camera.

Series [6] relates to Salmonella isolates (MDR and non-MDR). Nature of the series: Growth curve assay, statements over all Salmonella isolates. In kind it is cell-based. As for the experimental part:
as §1

For series [7], the system named is MDR Salmonella enterica serovar I 4,[5],12:i:- strain USDA15WA-1 (SX238). Nature of the series: Growth curve assay (automated reader, OD600) with isolate SX238. In kind it is cell-based. As for the experimental part:
as §1

Series [8] deals with MDR Salmonella enterica serovar Typhimurium DT193 strain 1434 (SX231). The series can be described thus: Growth curve assay (automated reader, OD600) with isolate SX231. The format is cell-based. To be noted: LB broth, 10^5 CFU/well, OD600 over 24 h.
Series [9] has as its system Salmonella enterica serotype Typhimurium LPS; growth of isolate SX238. The series can be described thus: NK2A-LPS binding by growth curve assay after LPS preincubation. The format is cell-based. How it is done: The binding of NK2A to Salmonella LPS was studied by growth curve assay and TEM. Five micromolar NK2A (~ 2.2 µg/well) was preincubated with different amounts of Salmonella enterica serotype Typhimurium LPS (Sigma; LPS = 0, 0.5, 1.1, 2.2, 4.4, 8.8 µg/well, final volume of LPS and NK2A = 20 µL) at 37 °C in a honeycomb plate with continuous shaking for 30 min. Overnight Salmonella (isolate SX238) culture was diluted to ~ 1 × 10^6 CFU/mL and 100 µL was transferred into wells containing NK2A-LPS and further incubated at 37 °C with continuous shaking for 24 h. The optical density (OD600) data were analyzed, and growth curve graphs were generated.

The test system of series [10] is Salmonella SX238. The series can be described thus: LIVE/DEAD BacLight staining, confocal laser scanning microscopy. The format is cell-based, Salmonella enterica serovar I 4,[5],12:i:-. To be noted: 5 µM peptide. How it is done: The viabilities of bacteria following incubation with NK2A and Sc-NK2A were determined using culture-independent (function of the membrane integrity of the bacteria) staining technique by using LIVE/DEAD™ BacLight™ bacterial viability kit (for microscopy) as described previously. Bacteria in each treatment was visualized using a Nikon A1R + laser scanning confocal microscope (Nikon Instruments, Melville, NY) as described previously. Images were obtained using plan Apo 60 × objective lens (oil) at numerical aperture 1.4. Final figures were prepared using Adobe Photoshop Elements 11.

Consider `CC[C@H](C)[C@H](NC(=O)[C@H](CO)NC(=O)[C@H](CCCCN)NC(=O)[C@H](CS)NC(=O)[C@H](CC(C)C)NC(=O)CNC(=O)[C@H](CCCCN)NC(=O)[C@H](CC(C)C)NC(=O)[C@H](CC(C)C)NC(=O)[C@H](CCCNC(=N)N)NC(=O)[C@H](CCSC)NC(=O)[C@H](CCCCN)NC(=O)[C@H](CO)NC(=O)[C@H](CS)NC(=O)[C@H](CCSC)NC(=O)[C@H](CCCCN)NC(=O)[C@H](CO)NC(=O)[C@H](C)NC(=O)[C@@H](NC(=O)[C@H](CCC(=O)O)NC(=O)[C@@H](NC(=O)[C@@H](NC(=O)[C@@H](N)[C@@H](C)O)C(C)C)[C@@H](C)CC)C(C)C)C(=O)N[C@H](C(=O)N[C@@H](CCCCN)C(=O)N[C@@H](CCCNC(=N)N)C(=O)N[C@@H](Cc1ccccc1)C(=O)N[C@@H](CC(C)C)C(=O)N[C@@H](CCCNC(=N)N)C(=O)N[C@@H](CCCNC(=N)N)C(=O)O)[C@@H](C)O` [NK2A] (H-TVIEVASKMCSKMRLLKGLCKSITKRFLRR-OH; N-terminus and C-terminus assumed), for which the “signs of toxicity or death” value in series [1] was “did not show signs of toxicity or death”. Besides, the PI uptake signal result in [2] is recorded as “rapid PI uptake was observed”. Further, the “peptide concentration at which growth of SB395 was inhibited” value in [3] is on record as at least 5 µM. Also, in series [4], the “peptide concentration at which growth of SB377 was completely inhibited” value is at least 5 µM. Moreover, the “ultrastructural changes to bacterial membranes” value in [5] was “extensively damaged outer- and inner-membranes and cytosolic content leakage”. In series [6] (24 h incubation in LB broth, MDR and non-MDR isolates), the “concentrations able to inhibit growth of Salmonella during 24 h” value fell in the range of 3.5 to 5 µM. The “final concentration to which three of the four isolates were sensitive” value in series [6] (SX238, SX231, SB395, SB377 at 10^5 CFU/well, the three isolates are not named) is recorded as 3.5 µM. Moreover, the “duration of growth inhibition at 2 µM” value in [7] (2 µM peptide, LB broth (Fig. 1a)) is on record as “up to 8 h”. Moreover, in [7] (10 µM peptide, 10^5–7 CFU/mL (10^4–6 CFU/well), 24 h growth period), the “growth inhibition of SX238 at different bacterial CFU” value was “completely inhibited growth”. Besides, in [7] (10 µM peptide, 10^8 CFU/mL (10^7 CFU/well)), the “duration of partial growth inhibition at high inoculum” value is “up to 9 h”. Besides, in series [8], the “peptide concentration at which growth of SX231 was inhibited” value is at least 5 µM. Also, the “delayed bacterial growth recovery after LPS preincubation” value in [9] (5 µM (2.2 µg) NK2A preincubated 30 min with 1.1 µg and 2.2 µg LPS) lay in the range of 5 to 10 h. Also, the “effect of LPS preincubation on antimicrobial activity” value in [9] (5 µM (2.2 µg) NK2A preincubated 30 min with 4.4 µg and 8.8 µg LPS) is reported as “completely inhibited the antimicrobial activity of NK2A”. The “live/dead staining result (SYTO 9 / PI)” value in [10] is on record as “many dead (red) Salmonella SX238 were detected”.
